“Also recorded” adds a separate entry of the source.
Assays:
UMR106.01 cells = assay: cAMP production (adenylate cyclase response) in UMR106.01 cells; type: cell-based; details: for cAMP formation by the peptide alone: FIG. 5A/5B; for maximum amplitude of cAMP response: compared with other peptides at highest concentrations
Description: The PTH-like biological activity of the peptides was assayed by measuring cyclic adenosine 3′,5′-monophosphate (cAMP) production in UMR106.01 cells (Forrest et al, Calcif Tissue Int, 37:52-56 (1985)), grown to 90% confluence. Prior to assaying, the cells were washed once with phosphate buffered saline (PBS) and equilibrated for 20 mins in medium containing 0.1% BSA and lmM-isobutylmethylxanthine (Sigma, St Louis, USA). Cells were subsequently stimulated at 37° C for 10 mins in the absence and presence of increasing hormone concentrations. The cells were then washed once with PBS and cAMP was extracted with 1.5 ml acidified ethanol. Samples were evaporated to dryness, reconstituted in assay buffer and assayed by a specific cAMP radioimmunoassay (Houssami et al, Endocrine J. 2:127-134 (1994)).

PTH-1R = PTH-1R (UniProt P25961); assay: cell-based or functional assay
Chain of UniProt P25961 (P25961 27-591 limits assumed): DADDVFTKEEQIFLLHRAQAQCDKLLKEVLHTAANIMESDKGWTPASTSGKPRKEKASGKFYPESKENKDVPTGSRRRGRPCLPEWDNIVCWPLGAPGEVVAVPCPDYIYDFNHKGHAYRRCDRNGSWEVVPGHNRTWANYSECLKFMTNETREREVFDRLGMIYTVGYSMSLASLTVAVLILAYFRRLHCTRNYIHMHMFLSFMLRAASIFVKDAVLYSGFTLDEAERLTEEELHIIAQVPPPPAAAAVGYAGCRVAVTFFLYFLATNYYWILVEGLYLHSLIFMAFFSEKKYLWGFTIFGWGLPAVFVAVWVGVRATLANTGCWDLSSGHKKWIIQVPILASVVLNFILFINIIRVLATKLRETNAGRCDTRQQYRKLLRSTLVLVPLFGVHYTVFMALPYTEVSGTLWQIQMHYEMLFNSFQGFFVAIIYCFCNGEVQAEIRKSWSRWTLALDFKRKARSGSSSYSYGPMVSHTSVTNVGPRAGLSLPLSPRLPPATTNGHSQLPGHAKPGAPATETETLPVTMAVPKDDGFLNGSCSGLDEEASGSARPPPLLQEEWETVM

[1] = test system: bones of male Sprague-Dawley rats; assay: Anabolic effect on bones of rats (histomorphometry of proximal tibiae); type: in vivo, rat; details: for histomorphometric markers of bone resorption: FIG. 11; for osteoblast number per unit osteoid surface: FIG. 10
Description: The anabolic effect of Fugu PTH was assessed in the bones of 50-60 g male Sprague-Dawley rats (3-4 weeks old).
Rats were subcutaneously administered a low or high dose (3 or 10 gg) of Fugu PTH(1-34) per 100 g body weight each day for 30 days. The synthetic PTH peptides were dissolved in 0.01M acetic acid and then daily injections were prepared in normal saline with 2% rat serum (from male Sprague-Dawley rats). The rats were weighed twice a week and the PTH dose adjusted for the increasing weight of each animal.
There were 12 rats in each of the following treatment groups: control, human PTH (low or high dose) and Fugu PTH (low or high dose). Rats were euthanased using asphyxiation and tibiae were removed, leaving most of the muscle on the bone. The samples were placed into freshly prepared 4% paraformaldehyde. They were fixed for 24 hours and then transferred to 70% ethanol in preparation for histomorphometry.
Fixed tibiae were X-rayed and embedded in methylmethacrylate resin as follows: Tibiae were cleaned of muscle, then bisected transversely and trimmed approximately 2 mm on each side using a water cooled slow speed bench saw to provide a flat surface for embedding, parallel to the sagittal midline. Fixed tibiae were dehydrated in acetone by hourly changes of 70% acetone, 90% acetone and 100% acetone (×2). After dehydration, samples were infiltrated with methylmethacrylate resin (85% methylmethacrylate, 15% dibutylphthalate, 0.05% benzoyl peroxide) twice for at least 3 days (minimum total of 6 days). For at least one day of the infiltration procedure, samples were infiltrated under vacuum at room temperature; all other steps were carried out at 4° C. After infiltration, tibiae were embedded in glass scintillation vials on a polymerised methylmethacrylate base in methylmethacrylate resin (85% methylmethacrylate, 15% dibuylphthalate, 3% benzoyl peroxide) in a waterbath in a 37° C. incubator over 48 hours. After polymerisation, a third layer of methacrylate was included (same components as above plus acrylic resin beads) and allowed to polymerise over another 48 hours. After samples were fully polymerised, they were cooled at −20° C. to allow polymer contraction, before the embedded tibiae were released from the glass vials by smashing them with a hammer. Polymerised tibiae were then ground on an electric grinder/ polisher to expose the bone surface, and provide a squared block to sit securely in a microtome. 5 μm sections were cut on a Leica 2165 microtome, spread with 95% ethanol and adhered to glass microscope slides by clamping overnight at 37° C. separated by pieces of bagging plastic. Fully adhered sections were deplasticised in cellosolve for 2×25 minutes, dehydrated in graded ethanols and stained with toluidine blue for standard histomorphometry. Von Kossa staining was carried out to provide composite images.
Histomorphometry was carried out according to standard procedures using the Osteomeasure Image analysis system (Osteometrics, Decatur, Ga.) in the secondary spongiosa, starting 3 mm below the growth plate in a region 3 mm wide by 1.1 mm high. Data was analysed by one-way ANOVA followed by Tukey's post-hoc test to locate significant differences.

[2] = test system: polyclonal antisera raised against human PTHrP(1-14), human PTHrP(1-141) and hPTH(1-34); assay: Immunoblots (dot blots) with anti-human PTHrP and anti-human PTH antisera; type: binding, rabbit; details: 10, 25, 50 μg spotted, data not shown
From the text: Seven antisera (R88, R1904, R1942, R87, R1348, R196, R212) were raised against human PTHrP(1-14) and one antiserum (R190) was raised against human PTHrP(1-141). The anti-PTH polyclonal antibody was raised against hPTH(1-34)(BioGenex, San Ramon, USA). The anti-human PTHrP antisera have been used successfully in immunohistochemistry and Western blotting with tissues taken from bony and cartilaginous fishes (Danks et al, Gen Comp Endocrinol, 92:201-212 (1993); Ingleton et al, Gen Comp Endocrinol 98:211-218 (1995)). The anti-PTH antiserum has been used in immunohistochemistry of human parathyroid material and Western blotting (Danks et al, J Pathol, 161:27-33 (1993)). 10, 25, 50 μg of Fugu PTH were spotted along side a positive control, (ie human PTHrP(I-34)), on nitrocellulose membrane (Schleicher & Schuell, Dassel, Germany). After an initial incubation period with Tris buffered saline, 0.2% Tween, 5% skim milk powder to block non specific binding sites, the nitrocellulose membrane was incubated with primary polyclonal antibody, followed by secondary antibody (anti-rabbit serum conjugated to horseradish peroxidase (Dako, Carpenteria, USA)) incubation. Three washes on a shaker table were done in between incubations. A BM chemiluminescence blotting system (Roche Applied Sciences, Mannheim, Germany) was used to detect specific dot blots.

PTH-3R = details: zebrafish PTH-3R, Rubin et al; cited from earlier work
[3] = 10 microgram/100 gram body weight/day, 30 days, vs untreated control
[4] = high dose 10 microgram/100 gram body weight/day

## Fugu PTH(1-32): synthetic fragment, amino acids 1-32 of Fugu PTH (TVSEVQLMHNLGEHKQVQERREWLQRRLHGIH)
UMR106.01 cells
  cAMP formation by the peptide alone: stimulated cAMP formation
  maximum amplitude of cAMP response: higher amplitude of maximum cAMP response than Fugu PTHrP(1-34)

## Fugu PTHrP(1-34) (peptide)
PTH-1R
  ID50 of adenylate cyclase response (FIG. 5B), UMR106.01 cells: 1.5 nM
  ID50 of cAMP formation in UMR106.01 cells: 1.4 nM

## TVSEVQLMHNLGEHKQVQERREWLQRRLHGIHPIGLNNDDEPGWGRKGIASRELPNLRDLTPEEIQNALNVLEELLKSQE [Fugu PTH(1-34)]
UMR106.01 cells
  potency in cAMP assay relative to other peptides: less potent than human PTH(1-34), human PTHrP(1-34) and Fugu PTHrP(1-34)
  cAMP formation by the peptide alone: stimulated cAMP formation
  maximum amplitude of cAMP response: higher amplitude of maximum cAMP response than Fugu PTHrP(1-34); also recorded: significantly greater than that achieved with the highest concentrations of human PTH, human PTHrP or Fugu PTHrP
UMR106.01 cells; 100 nM Fugu PTH(1-34) with maximal dose 10 nM Fugu PTHrP(1-34), data not shown
  adenylate cyclase activity on co-incubation with Fugu PTHrP(1-34): no further increase in adenylate cyclase activity was observed
UMR106.01 cells; adenylate cyclase activation on a mammalian target cell
  potency relative to human PTH or PTHrP: about one-fifth to one-tenth
[1]; [3]
  trabecular bone volume: significant increase
  trabecular number: significant increase
  trabecular separation: without a reduction
  trabecular thickness: significant increase
[1]; 10 micrograms/100 grams
  osteoblast generation: increased osteoblast generation
[1]; 10 micrograms/100 grams, young growing rats
  anabolic effect on bone: anabolic in young growing rats
[1]; dose not specified
  histomorphometric markers of bone resorption: not significantly altered
[1]; [4]
  osteoclast number: trend for reduced osteoclast numbers but this did not reach statistical significance; also recorded: trend towards reduced osteoclast number
  osteoblast number per unit osteoid surface: significantly increased
[1]; low dose 3 microgram/100 gram body weight/day, FIG. 9
  osteoblast proliferation: trend towards increased osteoblast proliferation
[1]; low dose 3 microgram/100 gram body weight/day
  osteoblast number per unit osteoid surface: significantly increased
[1]; young rats, s.c. daily for 30 days, 3 or 10 microgram/100 gram body weight/day, FIG. 6
  bone mass / trabecular density in proximal tibiae: increases bone mass in young rats; also recorded: apparent elevation of trabecular density
[2]
  cross-reactivity with antisera against human PTHrP and human PTH: does not cross-react; also recorded: is not recognised by any of the human PTH or human PTHrP antisera

## human PTH: human parathyroid hormone, comparator peptide in rats (low or high dose); fragment length not stated there [reference compound]
[1]; 10 microgram/100 gram
  osteoclastogenesis: mild reduction in osteoclastogenesis
[1]; dose not specified in legend, FIG. 9
  histomorphometric markers of bone formation (osteoblast number and surface): significantly elevated
[1]; [4]
  osteoblast number per unit osteoid surface: significantly increased
  histomorphometric markers of bone resorption: significantly reduced
PTH-3R
  fold less potent than human PTHrP or Fugu PTHrP in receptor activation: 20 fold

## human PTHrP(7-34): human parathyroid hormone-related protein fragment 7-34, co-incubated as inhibitor of the cAMP response [reference compound]
UMR106.01 cells; increasing concentrations co-incubated with 10 nM Fugu PTH(1-34), 1 nM human PTH(1-34), 0.5 nM Fugu PTHrP(1-34) or 0.5 nM human PTHrP(1-34), data not shown
  inhibition of the cAMP response to agonist peptides: partial inhibition of the cAMP response

From US20070117157A1, “Parathyroid hormone-like polypeptides” (priority 2002, published 2007)
